# Reference: patent US10016382B2, “Method for decreasing skeletal muscle damage and/or oxidative stress in mammals” (LONZA INC., priority 2014, dated 2018)
# “And” between values parts separate entries of the source, which are not always exact repeats. Identical values can stand only once.
# Key:
# [1] = Food offered and food consumption (per day, per kg BW, per kg lean mass), Example 2 part one; assay type: in vivo, dog
# Experimental: The performance dogs were weighed at the beginning of the study and at one week intervals until the end of part one. Feed consumption and refusals were determined daily by weighing and recording the amount offered or refused. The quantity of food provided to each dog on a daily basis was adjusted based on the goal of maintaining the dog's minimum body weight throughout the study. The consumption per kg of lean mass was determined by dividing the mean lean mass of each group into its mean daily food consumption value at the initial and then the final body scans.
# [2] = test system: Thiobarbituric acid reactive substances (TBARS); assay: Serum TBARS (oxidative stress), Example 1; assay type: in vivo, dog; settings: for TBARS, serum, Mean / Change in TBARS, post-run minus pre-run: Ex.1, 250 mg/d; for Change in TBARS, post-run minus pre-run: following 15 mile long run at 13 wk, mean ± SEM
# Experimental: Blood Analysis: Serum samples were taken at three different times from each dog during the 90 day period. The blood samples were collected as follows: 1.) just prior to scanning each dog for body composition at the beginning of the study, 2.) prior to the long run on the 13th week, and 3.) following the long run on the 13th week. The serum samples were analyzed for Phosphocreatine Kinase and Canine Myoglobin to determine the amount of muscle protein leakage that occurred following the long run and TBARS and Total Antioxidant Capacity (TAC) were determined to evaluate the antioxidant status of each of the test dogs during the exercise program. The final blood sample was taken 24 hr after the long run to obtain maximum protein leakage based on previous similar types of exercise research with human athletes. Biomarkers and Assay Methods: Blood was drawn from each dog using a serum separator tube at three different times during the 90 day period: 1.) just prior to scanning each dog for body composition at the beginning of the study, 2.) prior to the long run on the 13th week, and 3.) following the long run on the 13th week. The final blood sample was taken 24 hr after the long run to obtain maximum protein leakage based on previous similar types of exercise research with human athletes. Each time after the blood was drawn it was allowed to clot before being centrifuged for 15 min at 2000 g at 4° C. Serum was aliquoted into 1.5 mL microcentrifuge tubes and stored at −80° C. until assays were ran following the end of the study. Creatine kinase (CK) and canine myoglobin were measured to determine the amount of muscle protein leakage that occurred following the long run. Thiobarbituric acid reactive substances (TBARS) and total antioxidant capacity (TAC) were measured to evaluate the antioxidant status of each of the test dogs during the exercise program. Serum samples were analyzed for total antioxidant capacity (TAC) and thiobarbituric acid reactive substances (TBARS) using commercially available colorimetric kits supplied by Cayman Chemical Company (Ann Arbor, Mich.) per manufacturer instructions. Serum canine myoglobin levels were determined using a commercially available ELISA supplied by Innovate Research (Novi, Mich.) per manufacturer instructions. Creatine kinase activity was determined colorimetrically using a commercially available kit supplied by BioVision (San Francisco, Calif.).
# [3] = Ex.2 part one, 250 mg/d, 14 week study
# [4] = Ex.2 part one, 250 mg/d, week 1
smiles,measurement,setting,value
C[N+](C)(C)C[C@H](O)CC(=O)[O-] [L-carnitine],Mean Food Intake Over 14 wk Duration/Lean Mass,"[1]; Change, F",−2.46 g/d/kg Lean Mass
same,Mean Food Intake Over 14 wk Duration/Lean Mass,"[1]; Change, M",−1.98 g/d/kg Lean Mass
same,Overall mean amount of food offered per day,[1]; [3],677 g/day
same,Overall mean food intake per day,[1]; [3],574 g/day
same,Mean food intake per kg lean mass,"[1]; Ex.2 part one, 250 mg/d, Final body composition scan",24.02 g/d/kg LM
same,Mean food intake per kg lean mass,"[1]; Ex.2 part one, 250 mg/d, Initial body composition scan",26.24 g/d/kg LM
same,Change in mean food intake per kg lean mass,"[1]; Ex.2 part one, 250 mg/d, final minus initial over 14 wks",−2.22 g/d/kg LM
same,Amount of food consumed,[1]; [4],618.25 g/day
same,Food consumption per kg body weight,[1]; [4],20.96 g/d/kg BW
same,Intake of kcals of ME,[1]; [4],83.83 kcal/d/kg BW
same,Amount of food consumed,"[1]; Ex.2 part one, 250 mg/d, week 4",629.43 g/day
same,Mean Food Intake Over 14 wk Duration/Lean Mass,"[1]; Final, F",27.46 g/d/kg Lean Mass
same,Mean Food Intake Over 14 wk Duration/Lean Mass,"[1]; Final, M",20.58 g/d/kg Lean Mass
same,Mean Food Intake Over 14 wk Duration/Lean Mass,"[1]; Initial, F",29.92 g/d/kg Lean Mass
same,Mean Food Intake Over 14 wk Duration/Lean Mass,"[1]; Initial, M",22.56 g/d/kg Lean Mass
same,Daily Food Intake,[1]; Week 1,618.25 ± 22.33 g
same,Daily Food Intake (ME),[1]; Week 1,83.83 ± 1.85 kcal ME/d/kg BW
same,Daily Food Intake per kg BW,[1]; Week 1,20.96 ± 0.46 g/d/kg BW
same,Daily Food Intake,[1]; Week 2,608.79 ± 22.8 g
same,Daily Food Intake (ME),[1]; Week 2,85.21 ± 2.22 kcal ME/d/kg BW
same,Daily Food Intake per kg BW,[1]; Week 2,21.3 ± 0.55 g/d/kg BW
same,Daily Food Intake,[1]; Week 3,600.54 ± 19.89 g
same,Daily Food Intake (ME),[1]; Week 3,82.87 ± 2.34 kcal ME/d/kg BW
same,Daily Food Intake per kg BW,[1]; Week 3,20.72 ± 0.58 g/d/kg BW
same,Daily Food Intake,[1]; Week 4,629.43 ± 21.4 g
same,Daily Food Intake (ME),[1]; Week 4,86.54 ± 2.08 kcal ME/d/kg BW
same,Daily Food Intake per kg BW,[1]; Week 4,21.64 ± 0.52 g/d/kg BW
same,Daily Food Intake,[1]; Week 5,597.07 ± 18.65 g
same,Daily Food Intake (ME),[1]; Week 5,81.86 ± 1.82 kcal ME/d/kg BW
same,Daily Food Intake per kg BW,[1]; Week 5,20.47 ± 0.45 g/d/kg BW
same,Daily Food Intake,[1]; Week 6,579.11 ± 21.17 g
same,Daily Food Intake (ME),[1]; Week 6,78.87 ± 2.06 kcal ME/d/kg BW
same,Daily Food Intake per kg BW,[1]; Week 6,19.72 ± 0.51 g/d/kg BW
same,Daily Food Intake,[1]; Week 7,584.5 ± 18.91 g
same,Daily Food Intake (ME),[1]; Week 7,79.61 ± 1.97 kcal ME/d/kg BW
same,Daily Food Intake per kg BW,[1]; Week 7,19.91 ± 0.49 g/d/kg BW
same,Daily Food Intake,[1]; Week 8,547.14 ± 20.91 g
same,Daily Food Intake (ME),[1]; Week 8,74.21 ± 2.16 kcal ME/d/kg BW
same,Daily Food Intake per kg BW,[1]; Week 8,18.55 ± 0.54 g/d/kg BW
same,Daily Food Intake,[1]; Week 9,602.79 ± 23.4 g
same,Daily Food Intake (ME),[1]; Week 9,81.55 ± 2.2 kcal ME/d/kg BW
same,Daily Food Intake per kg BW,[1]; Week 9,20.39 ± 0.55 g/d/kg BW
same,Daily Food Intake,[1]; Week 10,580.04 ± 21.88 g
same,Daily Food Intake (ME),[1]; Week 10,78.76 ± 2.25 kcal ME/d/kg BW
same,Daily Food Intake per kg BW,[1]; Week 10,19.69 ± 0.56 g/d/kg BW
same,Daily Food Intake,[1]; Week 11,543.89 ± 19.79 g
same,Daily Food Intake (ME),[1]; Week 11,73.79 ± 2.09 kcal ME/d/kg BW
same,Daily Food Intake per kg BW,[1]; Week 11,18.45 ± 0.52 g/d/kg BW
same,Daily Food Intake,[1]; Week 12,493.68 ± 19.06 g
same,Daily Food Intake (ME),[1]; Week 12,66.64 ± 1.71 kcal ME/d/kg BW
same,Daily Food Intake per kg BW,[1]; Week 12,16.66 ± 0.43 g/d/kg BW
same,Daily Food Intake,[1]; Week 13,511.82 ± 22.64 g
same,Daily Food Intake (ME),[1]; Week 13,68.71 ± 2.06 kcal ME/d/kg BW
same,Daily Food Intake per kg BW,[1]; Week 13,17.18 ± 0.51 g/d/kg BW
same,Daily Food Intake,[1]; Week 14,543.5 ± 26.43 g
same,Daily Food Intake (ME),[1]; Week 14,73.21 ± 2.75 kcal ME/d/kg BW
same,Daily Food Intake per kg BW,[1]; Week 14,18.3 ± 0.69 g/d/kg BW
same,TBARS Least Sq Mean,[2]; Baseline,12.53 μM MDA
same,TBARS Least Sq Mean,"[2]; Baseline, F",14.1 μM MDA
same,TBARS Least Sq Mean,"[2]; Baseline, M",10.96 μM MDA
same,"TBARS, serum, Mean","[2]; Baseline, both sexes",12.37 uM MDA
same,"TBARS, serum, Mean","[2]; Baseline, females",14.10 uM MDA
same,"TBARS, serum, Mean","[2]; Baseline, males",10.96 uM MDA
same,"TBARS, serum, Mean","[2]; Post-run, both sexes",12.59 uM MDA
same,"TBARS, serum, Mean","[2]; Post-run, females",14.47 uM MDA
same,"TBARS, serum, Mean","[2]; Post-run, males",11.06 uM MDA
same,"TBARS, serum, Mean","[2]; Pre-run, both sexes",12.18 uM MDA
same,"TBARS, serum, Mean","[2]; Pre-run, females",15.13 uM MDA
same,"TBARS, serum, Mean","[2]; Pre-run, males",9.77 uM MDA
same,"Change in TBARS, post-run minus pre-run",[2]; both sexes,0.41 μM MDA and 0.41 ± 0.71 n = 20 μM MDA
same,"Change in TBARS, post-run minus pre-run",[2]; females,−0.7 ± 1.1 n = 9 μM MDA
same,"Change in TBARS, post-run minus pre-run",[2]; males,1.3 ± 0.9 n = 11 μM MDA
same,TBARS Least Sq Mean,[2]; Post-run,12.76 μM MDA
same,TBARS Least Sq Mean,"[2]; Post-run, F",14.47 μM MDA
same,TBARS Least Sq Mean,"[2]; Post-run, M",11.06 μM MDA
same,TBARS Least Sq Mean,[2]; Pre-run,12.45 μM MDA
same,TBARS Least Sq Mean,"[2]; Pre-run, F",15.13 μM MDA
same,TBARS Least Sq Mean,"[2]; Pre-run, M",9.77 μM MDA
same,TBARS Least Sq Mean,"[2]; Treatment * Sex, F",14.1 μM MDA
same,TBARS Least Sq Mean,"[2]; Treatment * Sex, M",10.96 μM MDA
same,TBARS Least Sq Mean,"[2]; Treatment level, all dogs",12.53 μM MDA
same,"TBARS, mixed model Estimate, term Time[Post-run-Pre-run] * Treatment[L-carnitine]","[2]; serum, model term",−0.943
same,"TBARS, mixed model Estimate, term Time[Post-run-Pre-run] * Treatment[L-carnitine] * Sex[F]","[2]; serum, model term",−0.763
same,"TBARS, mixed model Estimate, term Time[Pre-run-Baseline] * Treatment[L-carnitine]","[2]; serum, model term",0.8244
same,"TBARS, mixed model Estimate, term Time[Pre-run-Baseline] * Treatment[L-carnitine] * Sex[F]","[2]; serum, model term",0.2021
same,"TBARS, mixed model Estimate, term Treatment[L-carnitine]","[2]; serum, model term",−0.5222
same,"TBARS, mixed model Estimate, term Treatment[L-carnitine] * Sex[F]","[2]; serum, model term",0.4031
